This note sets out measurements from patent publication US6194408A, “Triazineone compounds for treating diseases due to Sarcocystis, Neospora and Toxoplasma” (Bayer Corporation, priority 1998, dated 2001).

Each structure is given as a SMILES string. “And” between values parts separate entries of the source, which are not always exact repeats. Equal values may be shown once.

Assay type in all cases: in vivo
Data set [1] can be described thus: Pharmacokinetics of a single oral dose of Toltrazuril in horses (blood levels). The settings on record: horses receiving single oral 10 mg/kg Toltrazuril. Here is the method: A pharmacokinetic study was conducted in horses comparing blood levels of Toltrazuril, Ponazuril and Toltrazuril Sulfoxide at various times post a single dose of Toltrazuril. All horses received a single dose of 10 mg/kg, which was administered orally as a suspension. Blood samples were drawn at the time of treatment (0) and at 0.25, 0.5, 1, 2, 4, 6, 12, 24, 48 and 72 hours post treatment. […] This was an indication that Ponazuril, alone, would produce acceptable blood levels that are envisioned to pass the blood-brain barrier, a characteristic required to treat neurological diseases such as those caused by Sarcocystis neurona, Toxoplasma gondii, Neospora caninum and Neospora heugesi.

A short description of data set [2]: Cerebral spinal fluid drug levels / passage of blood-brain barrier after repeated doses of Toltrazuril in horses. The following applies: for AVG Cerebral Spinal Fluid level (Table 5b) / AVG Cerebral Spinal Fluid level (Table 5a): CSF, average, Day 10. Here is the method: (§1) This experiment was conducted in order to determine whether triazineones such as Toltrazuril can pass the blood-brain barrier. Normal horses were divided into three groups of three horses per group. Group 1 horses received Toltrazuril administered orally as a 5% suspension at a dose level of 2.5 mg/Kg. Group 2 horses received Toltrazuril administered orally as a 5% suspension at a dose level of 5.0 mg/Kg. Group 3 horses received Toltrazuril administered orally as a 5% suspension at a dose level of 7.5 mg/Kg. The dosing was repeated daily for 10 days. Blood samples were drawn at 48, 96 and 240 hours and the concentration of Toltrazuril, Toltrazuril sulfoxide and Ponazuril in the serum was measured. Ten days after the start of the treatment (Day 10), a sample of cerebral spinal fluid was removed from each horse and the concentrations of Toltrazuril, Toltrazuril Sulfoxide and Ponazuril were again measured in these samples. The concentrations of Toltrazuril, Toltrazuril Sulfoxide and Ponazuril in the serum and cerebral spinal fluid are reported in TABLES 5a and 5b.

The nature of data set [3]: Serum drug levels after repeated doses of Toltrazuril in horses. Set-up: unit not given here. The following applies: for Toltrazuril Level (Table 5b) / Toltrazuril Level (Table 5a): per horse; for AVG Toltrazuril Level (Table 5b) / AVG Toltrazuril Level (Table 5a): average. Here is the method: as §1

Turning to `Cc1cc(-n2c(=O)[nH]c(=O)n(C)c2=O)ccc1Oc1ccc([S+]([O-])C(F)(F)F)cc1` (stereo not drawn) [Toltrazuril Sulfoxide], in data set [1], the “Levels in serum / bloodstream (in words)” value is reported as “significant levels”.
`Cc1cc(-n2c(=O)[nH]c(=O)n(C)c2=O)ccc1Oc1ccc(SC(F)(F)F)cc1` [Toltrazuril]: the “AVG Cerebral Spinal Fluid level (Table 5b)” value in data set [2] (2.5 mg/Kg oral Toltrazuril daily for 10 days) came to 0.09; in data set [2] (5.0 mg/Kg oral Toltrazuril daily for 10 days) it was 0.16; in data set [2] (7.5 mg/Kg oral Toltrazuril daily for 10 days), 0.22. Also, the “AVG Cerebral Spinal Fluid level (Table 5a)” value is recorded as 0.15 in data set [2] (2.5 mg/Kg oral daily for 10 days), 0.19 in data set [2] (5.0 mg/Kg oral daily for 10 days) and 0.39 in data set [2] (7.5 mg/Kg oral daily for 10 days). For the same molecule, in data set [2] (horses, after oral Toltrazuril daily for 10 days), the “Crossing of the blood-brain barrier” value is reported as “effectively cross the blood-brain barrier”. The “Toltrazuril Level (Table 5b)” value was 2.61 and 2.36 and 4.04 in data set [3] (2.5 mg/Kg oral Toltrazuril daily for 10 days, 240 Hrs, 2.5 mg/kg); 0.48 and 0.63 in data set [3] (5.0 mg/Kg oral Toltrazuril daily for 10 days, 48 Hrs, 5 mg/kg); 2.09 and 2.03 and 2.66 in data set [3] (5.0 mg/Kg oral Toltrazuril daily for 10 days, 96 Hrs, 5 mg/kg); 2.69 and 2.89 and 3.09 in data set [3] (7.5 mg/Kg oral Toltrazuril daily for 10 days, 96 Hrs, 7.5 mg/kg); 6.31 and 6.37 and 7.06 in data set [3] (7.5 mg/Kg oral Toltrazuril daily for 10 days, 240 Hrs, 7.5 mg/kg). For the same molecule, the “Toltrazuril Level (Table 5a)” value in data set [3] (2.5 mg/Kg oral daily for 10 days, 96 Hrs, 2.5 mg/kg) is 9.85 and 9.09 and 13.1; in data set [3] (2.5 mg/Kg oral daily for 10 days, 240 Hrs, 2.5 mg/kg) it was 15.29 and 9.60 and 15.21; in data set [3] (5.0 mg/Kg oral daily for 10 days, 48 Hrs, 5 mg/kg), 7.28 and 9.18 and 9.26; in data set [3] (5.0 mg/Kg oral daily for 10 days, 96 Hrs, 5 mg/kg), 14.17 and 14.03 and 18.19; in data set [3] (5.0 mg/Kg oral daily for 10 days, 240 Hrs, 5 mg/kg), 24.92 and 16.54 and 17.59; in data set [3] (7.5 mg/Kg oral daily for 10 days, 48 Hrs, 7.5 mg/kg) it was 9.90 and 10.46. Further, the “Toltrazuril Level (Table 5a)” value in data set [3] (7.5 mg/Kg oral daily for 10 days, 96 Hrs, 7.5 mg/kg) was 27.74 and 19.55 and 18.47; in data set [3] (7.5 mg/Kg oral daily for 10 days, 240 Hrs, 7.5 mg/kg), 30.08 and 24.15 and 23.53. Also, the “AVG Toltrazuril Level (Table 5b)” value is listed as 1.41 in data set [3] (2.5 mg/Kg oral Toltrazuril daily for 10 days, 48 Hrs); 1.76 in data set [3] (2.5 mg/Kg oral Toltrazuril daily for 10 days, 96 Hrs); 3.00 in data set [3] (2.5 mg/Kg oral Toltrazuril daily for 10 days, 240 Hrs); 0.53 in data set [3] (5.0 mg/Kg oral Toltrazuril daily for 10 days, 48 Hrs); 2.26 in data set [3] (5.0 mg/Kg oral Toltrazuril daily for 10 days, 96 Hrs); 5.02 in data set [3] (5.0 mg/Kg oral Toltrazuril daily for 10 days, 240 Hrs). Further, the “AVG Toltrazuril Level (Table 5b)” value in data set [3] (7.5 mg/Kg oral Toltrazuril daily for 10 days, 48 Hrs) was found to be 2.55; in data set [3] (7.5 mg/Kg oral Toltrazuril daily for 10 days, 96 Hrs), 2.89; in data set [3] (7.5 mg/Kg oral Toltrazuril daily for 10 days, 240 Hrs), 6.58. For the same molecule, the “AVG Toltrazuril Level (Table 5a)” value in data set [3] (2.5 mg/Kg oral daily for 10 days, 48 Hrs) turned out to be 6.70; in data set [3] (2.5 mg/Kg oral daily for 10 days, 96 Hrs), 10.68; in data set [3] (2.5 mg/Kg oral daily for 10 days, 240 Hrs), 13.37; in data set [3] (5.0 mg/Kg oral daily for 10 days, 48 Hrs), 8.57; in data set [3] (5.0 mg/Kg oral daily for 10 days, 96 Hrs), 15.46; in data set [3] (5.0 mg/Kg oral daily for 10 days, 240 Hrs), 19.68. Moreover, the “AVG Toltrazuril Level (Table 5a)” value is reported as 10.18 in data set [3] (7.5 mg/Kg oral daily for 10 days, 48 Hrs); 21.92 in data set [3] (7.5 mg/Kg oral daily for 10 days, 96 Hrs); 25.95 in data set [3] (7.5 mg/Kg oral daily for 10 days, 240 Hrs).
